In patent US12344610B2, “APOL1 inhibitors and methods of use” (Maze Therapeutics, Inc., priority 2022, dated 2025):
pEC50: −log10 of the molar value. Like-named read-outs stand apart in the source and are kept apart here.

Assays:
Format in all cases: cell-based
[1] = test system: Trypanosoma brucei Lister 427 VSG221 with APOL1 G2 recombinant protein; assay: APOL1 G2 trypanosome cell rescue assay (Example B5); details: geometric mean of at least 2 assay runs, † = single assay run
Summary of the method: (§1)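 Recombinant APOL1 protein, dispensed from a 2 μg/mL stock, and 250 T. brucei per well were co-incubated with test compound (0.4% DMSO) for 20 h. Viability: CellTiter-Glo luminescence.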

[2] = test system: HEK293 clonal cell line overexpressing APOL1 G1; assay: APOL1 G1 HEK293 cell rescue assay (Example B3); details: geometric mean of at least 2 runs, † = single run, ¥ = concentration at 50% rescue estimated (no sigmoidal curve)
Summary of the method: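 Rescue of cell death caused by APOL1 G1 overexpression was measured in a clonal HEK293 line. Compounds were tested in duplicate on one plate, and EC50s were geometric means across at least two runs on different days. Some values are estimated 50%-rescue concentrations where curve fitting failed.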

[3] = test system: Trypanosoma brucei Lister 427 VSG221 with APOL1 G1 recombinant protein; assay: APOL1 G1 trypanosome cell rescue assay (Example B5); details: geometric mean of at least 2 assay runs, † = single assay run
Summary of the method: as §1

[4] = test system: Trypanosoma brucei Lister 427 VSG221 with APOL1 G0 recombinant protein; assay: APOL1 G0 trypanosome cell rescue assay (Example B5); details: geometric mean of at least 2 assay runs, † = single assay run
Summary of the method: as §1

[5] = Trypanosoma brucei, 20 h, read-out: APOL1 G2 Trypanosome Rescue EC50, Trypanosoma brucei Lister 427 VSG221 with APOL1 G2 recombinant protein, 20 hours, CellTiter-Glo
[6] = Homo sapiens, HEK293, HEK293 clonal line overexpressing APOL1 G1
[7] = Trypanosoma brucei, 20 h, read-out: APOL1 G1 Trypanosome Rescue EC50, Trypanosoma brucei Lister 427 VSG221 with APOL1 G1 recombinant protein, 20 hours, CellTiter-Glo
[8] = Trypanosoma brucei, 20 h, read-out: APOL1 G0 Trypanosome Rescue EC50, Trypanosoma brucei Lister 427 VSG221 with APOL1 G0 recombinant protein, 20 hours, CellTiter-Glo
[9] = read-out: APOL1 G2 Trypanosome Rescue EC50, Trypanosoma brucei Lister 427 VSG221 with APOL1 G2 recombinant protein, 20 hours, CellTiter-Glo
[10] = HEK293 clonal line overexpressing APOL1 G1
[11] = read-out: APOL1 G1 Trypanosome Rescue EC50, Trypanosoma brucei Lister 427 VSG221 with APOL1 G1 recombinant protein, 20 hours, CellTiter-Glo
[12] = read-out: APOL1 G0 Trypanosome Rescue EC50, Trypanosoma brucei Lister 427 VSG221 with APOL1 G0 recombinant protein, 20 hours, CellTiter-Glo

Row | SMILES | pEC50 [1, 5] | pEC50 [2, 6] | pEC50 [3, 7] | pEC50 [4, 8] | pEC50 [1, 9] | pEC50 [2, 10] | pEC50 [3, 11] | pEC50 [4, 12]
1 | O=C1CCC2c3ccc(OCCN4CCC5(CC4)C(=O)Nc4ccc(Cl)cc45)cc3CCN12 (single isomer, unassigned) [Compound 122, (S) or (R)-5-chloro-1′-[2-({3-oxo-1H,2H,3H,5H,6H,10bH-pyrrolo[2,1-a]isoquinolin-8-yl}oxy)ethyl]-1,2-dihydrospiro[indole-3,4′-piperidin]-2-one] | 6.97 | 6.73 | 6.47 | 6.60 | – | – | – | –
2 | CS(=O)(=O)C1(c2ccc(OCCN3CCC4(CC3)C(=O)Nc3ccc(Cl)cc34)cc2)CCOCC1 [Compound 188, 5-chloro-1′-{2-[4-(4-methanesulfonyloxan-4-yl)phenoxy]ethyl}-1,2-dihydrospiro[indole-3,4′-piperidin]-2-one] | 7.57 | 6.91 | 7.02 | 7.15 | – | – | – | –
3 | CS(=O)(=O)c1ccc(OCCN2CCC3(CC2)C(=O)Nc2ccc(Cl)cc23)cc1Cl [Compound 155, 5-chloro-1′-[2-(3-chloro-4-methanesulfonylphenoxy)ethyl]-1,2-dihydrospiro[indole-3,4′-piperidin]-2-one] | 8.02 | 7.17 | 7.44 | 7.59 | – | – | – | –
4 | CS(=O)(=O)C1(c2ccc(OCCN3CCC4(CC3)C(=O)Nc3ccc(C#N)cc34)cc2)CC1 [Compound 101, 1′-{2-[4-(1-methanesulfonylcyclopropyl)phenoxy]ethyl}-2-oxo-1,2-dihydrospiro[indole-3,4′-piperidine]-5-carbonitrile] | 7.16 | 6.61 | 6.70 | 6.71 | – | – | – | –
5 | Cc1cc(OCCN2CCC3(CC2)C(=O)Nc2ccc(C#N)cc23)ccc1S(C)(=O)=O [Compound 111, 1′-[2-(4-methanesulfonyl-3-methylphenoxy)ethyl]-2-oxo-1,2-dihydrospiro[indole-3,4′-piperidine]-5-carbonitrile] | 6.98 | 6.61 | 6.44 | 6.55 | – | – | – | –
6 | C[C@@H](COc1ccc(S(C)(=O)=O)cc1)N1CCC2(CC1)C(=O)Nc1ccc(Cl)cc12 (single isomer, unassigned) [Compound 10] | 7.03 | 6.35 | 6.45 | 6.45 | – | – | – | –
7 | CC(c1c(F)cc(OCCN2CCC3(CC2)C(=O)Nc2ccc(Cl)cc23)cc1F)S(C)(=O)=O (single isomer, unassigned) [Compound 143, (R) or (S)-5-chloro-1′-{2-[3,5-difluoro-4-(1-methanesulfonylethyl)phenoxy]ethyl}-1,2-dihydrospiro[indole-3,4′-piperidin]-2-one] | – | – | – | – | 7.68 | 6.90 | 7.19 | 7.39
8 | Cc1cc(OCCN2CCC3(CC2)C(=O)Nc2ccc(Cl)cc23)cnc1S(C)(=O)=O [Compound 161, 5-chloro-1′-{2-[(6-methanesulfonyl-5-methylpyridin-3-yl)oxy]ethyl}-1,2-dihydrospiro[indole-3,4′-piperidin]-2-one] | 7.48 | 6.87 | 6.97 | 7.12 | – | – | – | –
9 | CC(c1c(F)cc(OCCN2CCC3(CC2)C(=O)Nc2ccc(C#N)cc23)cc1F)S(C)(=O)=O (single isomer, unassigned) [Compound 139, (R) or (S)-1′-{2-[3,5-difluoro-4-(1-methanesulfonylethyl)phenoxy]ethyl}-2-oxo-1,2-dihydrospiro[indole-3,4′-piperidine]-5-carbonitrile] | – | – | – | – | 6.83 | 6.42 | 6.27 | 6.47
10 | CS(=O)(=O)CCCn1ncc2cc(OCCN3CCC4(CC3)C(=O)Nc3ccc(Cl)cc34)ccc21 [Compound 14, 5-chloro-1′-(2-{[1-(3-methanesulfonylpropyl)-1H-indazol-5-yl]oxy}ethyl)-1,2-dihydrospiro[indole-3,4′-piperidin]-2-one] | 6.90 | 6.32 | 6.31 | 6.42 | – | – | – | –
11 | O=C1Nc2ccc(Cl)cc2C12CCN(CCOc1ccc(S(=O)(=O)C(F)F)cc1)CC2 [Compound 112, 5-chloro-1′-[2-(4-difluoromethanesulfonylphenoxy)ethyl]-1,2-dihydrospiro[indole-3,4′-piperidin]-2-one] | 7.74 | 7.11 | 7.16 | 7.24 | – | – | – | –
12 | O=C1Nc2ccc(Cl)cc2C12CCN(CCOc1ccc(C3CCCS3(=O)=O)cc1)CC2 (single isomer, unassigned) [Compound 176, (S) or (R)-2-[4-(2-{5-chloro-2-oxo-1,2-dihydrospiro[indole-3,4′-piperidin]-1′-yl}ethoxy)phenyl]-1λ^6-thiolane-1,1-dione] | 7.35 | 6.80 | 6.75 | – | – | – | – | 6.92
13 | CS(=O)(=O)c1ccc(OCCN2CCC3(CC2)C(=O)Nc2ccc(C#N)cc23)cc1C(F)F [Compound 100, 1′-{2-[3-(difluoromethyl)-4-methanesulfonylphenoxy]ethyl}-2-oxo-1,2-dihydrospiro[indole-3,4′-piperidine]-5-carbonitrile] | 7.59 | 6.87 | 6.95 | 7.20 | – | – | – | –
14 | CC(C)n1ncc2cc(OCCN3CCC4(CC3)C(=O)Nc3ccc(Cl)cc34)ccc21 [Compound 16, 5-chloro-1′-(2-{[1-(propan-2-yl)-1H-indazol-5-yl]oxy}ethyl)-1,2-dihydrospiro[indole-3,4′-piperidin]-2-one] | 6.96 | 6.53 | 6.51 | 6.57 | – | – | – | –
15 | CS(=O)(=O)C1(c2ccc(OCCN3CCC4(CC3)C(=O)Nc3ccc(C#N)cc34)cc2)COC1 [Compound 109, 1′-{2-[4-(3-methanesulfonyloxetan-3-yl)phenoxy]ethyl}-2-oxo-1,2-dihydrospiro[indole-3,4′-piperidine]-5-carbonitrile] | 7.01 | 6.49 | 6.41 | 6.49 | – | – | – | –
16 | CC(c1ccc(OCCN2CCC3(CC2)C(=O)Nc2ccc(C#N)cc23)cc1)S(C)(=O)=O (single isomer, unassigned) [Compound 134, (S) or (R)-1′-{2-[4-(1-methanesulfonylethyl)phenoxy]ethyl}-2-oxo-1,2-dihydrospiro[indole-3,4′-piperidine]-5-carbonitrile] | 6.56 | 6.00 | 6.00 | 6.07 | – | – | – | –
17 | CS(=O)(=O)C1(c2ccc(OCCN3CCC4(CC3)C(=O)Nc3ccc(C#N)cc34)cc2C(F)(F)F)COC1 [Compound 166, 1′-{2-[4-(3-methanesulfonyloxetan-3-yl)-3-(trifluoromethyl)phenoxy]ethyl}-2-oxo-1,2-dihydrospiro[indole-3,4′-piperidine]-5-carbonitrile] | 7.47 | 6.79 | 6.95 | 7.03 | – | – | – | –
18 | O=C1NCC2c3ccc(OCCN4CCC5(CC4)C(=O)Nc4ccc(Cl)cc45)cc3CCN12 (single isomer, unassigned) [Compound 117, (R) or (S)-5-chloro-1′-[2-({3-oxo-1H,2H,3H,5H,6H,10bH-imidazo[4,3-a]isoquinolin-8-yl}oxy)ethyl]-1,2-dihydrospiro[indole-3,4′-piperidin]-2-one] | – | – | – | – | 6.93 | 6.76 | 6.37 | 6.51
19 | CS(=O)(=O)C1(c2ccc(OCCN3CCC4(CC3)C(=O)Nc3ccc(Cl)cc34)cc2)CCC1 [Compound 180, 5-chloro-1′-{2-[4-(1-methanesulfonylcyclobutyl)phenoxy]ethyl}-1,2-dihydrospiro[indole-3,4′-piperidin]-2-one] | 7.88 | 7.13 | 7.32 | 7.45 | – | – | – | –
20 | O=C1NCC2c3ccc(OCCN4CCC5(CC4)C(=O)Nc4ccc(Cl)cc45)cc3CCN12 (single isomer, unassigned) [Compound 116, (S) or (R)-5-chloro-1′-[2-({3-oxo-1H,2H,3H,5H,6H,10bH-imidazo[4,3-a]isoquinolin-8-yl}oxy)ethyl]-1,2-dihydrospiro[indole-3,4′-piperidin]-2-one] | 7.16 | 6.63 | – | – | – | – | 6.68 | 6.83
